# How the values were obtained:
# [1] = Mouse Study I (protection from MTX-induced weight loss, LPS/MTX model); format: in vivo, C57BL/6 mice; conditions: 10 or 30 mg/kg ip 3 hr before and after MTX, LPS+MTX; p<0.004 (10 mg/kg), p<0.0005 (30 mg/kg) vs LPS+MTX
# Experimental: C57BL/6 mice (10 animals/treatment group) were dosed on Day 1 with LPS (5 μg, i.p.). On Day 2, the animals were treated with 200 mg/kg MTX+10 or 30 mg/kg TK-112690 3 hr before and 3 hr after the MTX treatment. On Day 3, the animals were dosed MTX 100 mg/kg+10 or 30 mg/kg TK±3 hr. On day 8, the Day 8-Day 1 weight was determined and results subject to ANOVA. Group 1=saline alone, Group 2=MTX alone, Group 3=LPS alone, Group 4=MTX+LPS, Group 5=10 mg/kg TK-112690+MTX+LPS or Group 6=30 mg/kg TK-112690+MTX+LPS.
# This mouse model is modified from a published procedure (de Koning et al., Int Immunol 18: 941 (2006)). Mice are treated on day one with a single intraperitoneal (ip) dose of lipopolysaccharide (LPS), followed by two consecutive days with 200 and 100 mg/kg ip methotrexate, respectively. Controls include saline alone for days 1, 2, and 3, saline on day 1 plus MTX on days 2 and 3 and LPS on day one with saline injection on days 2 and 3. Experimental groups are given LPS on day one and 10 or 30 mg/kg, TK-112690, a representative 2,2′-anhydropyrimidine test article, ip 3 hours before, and 3 hours after, methotrexate injection on days 2 and 3. Animal weights are measured every day after the first injection with experiment termination five days after the second methotrexate injection (day 8). Weight loss is representative of MTX-induced toxicity, and one aspect of MTX-induced mucositis. […]
# [2] = Mouse Study VI (plasma uridine and TK-112690 following TK-112690 treatment); format: in vivo, CD-1 female mice
# Experimental: In this study, CD-1 female mice were injected ip with 120 mg/kg TK-112690 and plasma from the animals analyzed by HPLC using UV detection for TK-112690 and uridine. Concentrations of uridine and TK-112690 in plasma samples collected 0.08, 0.50, 1, 2, 4 or 12 hours post TK-112690 injection were determined by HPLC using UV detection. […] An increase in plasma uridine was noted almost immediately following administration of TK-112690. At 0.5 hour post TK-112690 dose, a 100 μg/mL plasma concentration TK-112690 is associated with a plasma uridine concentration of approximately 2 μg/mL of uridine (baseline uridine concentration approximately 0.5 μg/mL). As expected, inhibition of UPase by TK-112690 results in elevation of plasma uridine.
# Plasma uridine concentration was determined by HPLC using UV detectionafter animals were treated with TK-112690 as follows. TK-112690 was dissolved in PBS to achieve a concentration of 500 mg/mL. CD-1 female mice were injected ip with a range of TK-112690 doses (0, 15, 30, 60 and 120 mg/kg) and plasma from the animals analyzed for TK-112690 uridine concentrations expected to be elevated through UPase inhibition by TK-112690. Plasma uridine concentrations were determined from plasma samples collected 0.08, 0.50, 1, 2, 4 or 12 hours post TK-112690 injection.
# HPLC analysis was done at room temperature using a ThermoFinnigan Spectra System equipped with degasser, pump, autosampler and UV detector. Chromatograms will be constructed from a chart recorder equipped with a pen. […]
# The micromolar concentration of plasma uridine was determined by linear equation (y=mx+b) generated from uridine and 5-FU calibration curve. The y value is calculated by taking ratio of peak heights (mm) of uridine and 5-FU. All peak heights from HPLC chromatograms were measured in millimeters using a ruler.
# An identical approach was employed to quantitate TK-112690 in the samples except the response for TK-112690 was attenuated by a response factor determined from the injection into the HPLC of identical amounts of TK-112690 and uridine, […]
smiles,measurement,setting,value
"Cc1cn2c(nc1=O)O[C@H]1[C@H](O)[C@@H](CO)O[C@H]12 [TK-112690, 2,2′-anhydro-5-methyluridine]",protection from MTX-induced weight loss (Day 8-Day 1 mean weight change),[1],highly significant
same,dose dependence of plasma concentrations of TK-112690,"[2]; 0, 15, 30, 60 and 120 mg/kg ip",increased with increasing doses
same,plasma uridine concentration,"[2]; 0.5 hour post TK-112690 dose, at 100 μg/mL plasma TK-112690, baseline approximately 0.5 μg/mL",approximately 2 μg/mL
same,concentration at 0.5 h,"[2]; female, CD-1, plasma, 120 mg/kg, 0.5 hour post TK-112690 dose, ip, mouse",100 µg/mL

# Reference: patent US8853227B2, “Methotrexate adjuvants to reduce toxicity and methods for using the same” (Tosk, Incorporated, priority 2008, dated 2014)
